{"source": "ChEMBL document CHEMBL5055685", "about": "“Discovery of the First Potent IDO1/IDO2 Dual Inhibitors: A Promising Strategy for Cancer Immunotherapy” (J Med Chem, 2021)", "key": {"[1]": {"target": "MAP/microtubule affinity-regulating kinase 4 (Homo sapiens) (UniProt Q96L34)", "test": "Inhibition of MARK4 (unknown origin) at 1 uM"}, "[2]": {"target": "Serine/threonine-protein kinase BRSK2 (Homo sapiens) (UniProt Q8IWQ3)", "test": "Inhibition of BRSK2 (unknown origin) at 1 uM"}, "[3]": {"test": "Intrinsic clearance in human liver microsomes", "assay_type": "ADME, Microsome", "details": "read-out: CLH"}, "[4]": {"target": "Tyrosine-protein kinase Tec (Homo sapiens) (UniProt P42680)", "test": "Inhibition of TEC (unknown origin) at 1 uM"}, "[5]": {"target": "Wee1-like protein kinase (Homo sapiens) (UniProt P30291)", "test": "Inhibition of WEE1 (unknown origin) at 1 uM"}, "Homo sapiens": {"species": "Homo sapiens", "test": "Inhibition of ALK6 (unknown origin) at 1 uM"}, "[6]": {"target": "Serine/threonine-protein kinase 16 (Homo sapiens) (UniProt O75716)", "test": "Inhibition of STK16 (unknown origin) at 1 uM"}, "[7]": {"target": "High affinity nerve growth factor receptor (Homo sapiens) (UniProt P04629)", "test": "Inhibition of TRKA (unknown origin) at 1 uM"}, "[8]": {"target": "Serine/threonine-protein kinase PLK2 (Homo sapiens) (UniProt Q9NYY3)", "sequence (Q9NYY3 whole entry, looked up)": "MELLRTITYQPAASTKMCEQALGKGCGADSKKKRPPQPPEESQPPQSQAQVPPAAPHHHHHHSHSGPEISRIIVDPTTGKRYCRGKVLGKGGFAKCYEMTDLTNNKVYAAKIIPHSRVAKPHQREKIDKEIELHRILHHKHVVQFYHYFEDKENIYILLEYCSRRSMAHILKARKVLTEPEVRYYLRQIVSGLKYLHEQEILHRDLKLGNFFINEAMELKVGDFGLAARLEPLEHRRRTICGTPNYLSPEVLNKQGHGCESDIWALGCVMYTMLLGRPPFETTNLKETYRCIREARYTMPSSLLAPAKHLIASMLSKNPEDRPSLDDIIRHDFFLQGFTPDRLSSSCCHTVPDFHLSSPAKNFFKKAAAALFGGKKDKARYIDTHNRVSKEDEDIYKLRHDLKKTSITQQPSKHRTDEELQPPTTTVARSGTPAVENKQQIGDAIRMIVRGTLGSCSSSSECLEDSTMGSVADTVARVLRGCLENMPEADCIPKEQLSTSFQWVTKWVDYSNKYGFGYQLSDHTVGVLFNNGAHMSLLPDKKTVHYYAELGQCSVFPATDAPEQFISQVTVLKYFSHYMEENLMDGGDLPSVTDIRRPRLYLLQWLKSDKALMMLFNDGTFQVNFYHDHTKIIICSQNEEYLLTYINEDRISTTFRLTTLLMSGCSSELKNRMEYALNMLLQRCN", "test": "Inhibition of PLK2 (unknown origin) at 1 uM"}, "[9]": {"target": "Casein kinase I isoform gamma-3 (Homo sapiens) (UniProt Q9Y6M4)", "test": "Inhibition of CK1gamma3 (unknown origin) at 1 uM"}, "[10]": {"target": "NT-3 growth factor receptor (Homo sapiens) (UniProt Q16288)", "sequence (Q16288 32-839 limits assumed)": "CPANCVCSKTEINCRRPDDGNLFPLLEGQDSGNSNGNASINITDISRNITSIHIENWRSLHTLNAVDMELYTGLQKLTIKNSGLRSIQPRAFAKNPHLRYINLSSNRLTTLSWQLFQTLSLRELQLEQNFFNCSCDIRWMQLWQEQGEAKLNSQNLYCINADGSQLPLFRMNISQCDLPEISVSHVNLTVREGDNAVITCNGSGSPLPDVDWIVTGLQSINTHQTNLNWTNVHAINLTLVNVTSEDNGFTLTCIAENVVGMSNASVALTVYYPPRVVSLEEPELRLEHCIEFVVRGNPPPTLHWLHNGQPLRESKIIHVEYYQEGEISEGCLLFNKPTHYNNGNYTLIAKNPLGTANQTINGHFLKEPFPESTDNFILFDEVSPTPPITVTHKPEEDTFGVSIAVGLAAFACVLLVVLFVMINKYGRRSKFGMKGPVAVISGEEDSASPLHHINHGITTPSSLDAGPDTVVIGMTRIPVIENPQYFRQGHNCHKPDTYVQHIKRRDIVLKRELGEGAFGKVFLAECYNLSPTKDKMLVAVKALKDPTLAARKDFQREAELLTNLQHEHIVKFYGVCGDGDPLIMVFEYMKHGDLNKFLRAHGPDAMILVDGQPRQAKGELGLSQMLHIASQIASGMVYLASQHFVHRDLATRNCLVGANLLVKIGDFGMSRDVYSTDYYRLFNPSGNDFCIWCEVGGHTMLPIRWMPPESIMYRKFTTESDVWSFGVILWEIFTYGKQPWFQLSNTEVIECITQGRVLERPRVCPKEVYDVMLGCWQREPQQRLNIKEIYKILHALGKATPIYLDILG", "test": "Inhibition of TRKC (unknown origin) at 1 uM"}, "[11]": {"target": "Vascular endothelial growth factor receptor 1 (Homo sapiens) (UniProt P17948)", "test": "Inhibition of FLT1 (unknown origin) at 1 uM"}, "[12]": {"target": "cAMP-dependent protein kinase catalytic subunit PRKX (Homo sapiens) (UniProt P51817)", "sequence (P51817 whole entry)": "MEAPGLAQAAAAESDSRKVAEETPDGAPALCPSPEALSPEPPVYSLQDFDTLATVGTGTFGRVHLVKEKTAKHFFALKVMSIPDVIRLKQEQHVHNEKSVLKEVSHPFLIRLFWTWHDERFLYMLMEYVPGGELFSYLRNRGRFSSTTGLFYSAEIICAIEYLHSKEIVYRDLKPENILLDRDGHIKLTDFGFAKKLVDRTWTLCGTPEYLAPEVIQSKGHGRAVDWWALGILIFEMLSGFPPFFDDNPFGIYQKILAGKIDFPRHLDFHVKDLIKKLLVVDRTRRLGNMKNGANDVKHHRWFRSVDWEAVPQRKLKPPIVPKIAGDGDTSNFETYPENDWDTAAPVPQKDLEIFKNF", "test": "Inhibition of PRKX (unknown origin) at 1 uM"}, "[13]": {"target": "Death-associated protein kinase 3 (Homo sapiens) (UniProt O43293)", "sequence (O43293 whole entry, looked up)": "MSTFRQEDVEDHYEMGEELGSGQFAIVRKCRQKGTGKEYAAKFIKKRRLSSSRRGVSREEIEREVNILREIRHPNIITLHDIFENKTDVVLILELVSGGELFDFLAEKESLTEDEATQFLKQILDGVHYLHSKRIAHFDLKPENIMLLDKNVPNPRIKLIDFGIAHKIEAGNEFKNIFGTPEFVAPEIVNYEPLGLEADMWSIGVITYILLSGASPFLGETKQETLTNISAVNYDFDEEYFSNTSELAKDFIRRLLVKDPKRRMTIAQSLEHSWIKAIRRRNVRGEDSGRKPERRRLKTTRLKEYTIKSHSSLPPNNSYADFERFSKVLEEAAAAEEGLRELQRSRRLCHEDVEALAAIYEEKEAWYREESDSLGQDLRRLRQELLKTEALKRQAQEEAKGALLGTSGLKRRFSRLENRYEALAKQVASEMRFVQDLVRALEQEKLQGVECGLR", "test": "Inhibition of ZIPK (unknown origin) at 1 uM"}, "[14]": {"test": "Metabolic stability in mouse liver microsomes assessed as rate constant", "assay_type": "ADME, Microsome"}, "[15]": {"target": "Rho-associated protein kinase 1 (Homo sapiens) (UniProt Q13464)", "sequence (Q13464 2-1354 limits assumed)": "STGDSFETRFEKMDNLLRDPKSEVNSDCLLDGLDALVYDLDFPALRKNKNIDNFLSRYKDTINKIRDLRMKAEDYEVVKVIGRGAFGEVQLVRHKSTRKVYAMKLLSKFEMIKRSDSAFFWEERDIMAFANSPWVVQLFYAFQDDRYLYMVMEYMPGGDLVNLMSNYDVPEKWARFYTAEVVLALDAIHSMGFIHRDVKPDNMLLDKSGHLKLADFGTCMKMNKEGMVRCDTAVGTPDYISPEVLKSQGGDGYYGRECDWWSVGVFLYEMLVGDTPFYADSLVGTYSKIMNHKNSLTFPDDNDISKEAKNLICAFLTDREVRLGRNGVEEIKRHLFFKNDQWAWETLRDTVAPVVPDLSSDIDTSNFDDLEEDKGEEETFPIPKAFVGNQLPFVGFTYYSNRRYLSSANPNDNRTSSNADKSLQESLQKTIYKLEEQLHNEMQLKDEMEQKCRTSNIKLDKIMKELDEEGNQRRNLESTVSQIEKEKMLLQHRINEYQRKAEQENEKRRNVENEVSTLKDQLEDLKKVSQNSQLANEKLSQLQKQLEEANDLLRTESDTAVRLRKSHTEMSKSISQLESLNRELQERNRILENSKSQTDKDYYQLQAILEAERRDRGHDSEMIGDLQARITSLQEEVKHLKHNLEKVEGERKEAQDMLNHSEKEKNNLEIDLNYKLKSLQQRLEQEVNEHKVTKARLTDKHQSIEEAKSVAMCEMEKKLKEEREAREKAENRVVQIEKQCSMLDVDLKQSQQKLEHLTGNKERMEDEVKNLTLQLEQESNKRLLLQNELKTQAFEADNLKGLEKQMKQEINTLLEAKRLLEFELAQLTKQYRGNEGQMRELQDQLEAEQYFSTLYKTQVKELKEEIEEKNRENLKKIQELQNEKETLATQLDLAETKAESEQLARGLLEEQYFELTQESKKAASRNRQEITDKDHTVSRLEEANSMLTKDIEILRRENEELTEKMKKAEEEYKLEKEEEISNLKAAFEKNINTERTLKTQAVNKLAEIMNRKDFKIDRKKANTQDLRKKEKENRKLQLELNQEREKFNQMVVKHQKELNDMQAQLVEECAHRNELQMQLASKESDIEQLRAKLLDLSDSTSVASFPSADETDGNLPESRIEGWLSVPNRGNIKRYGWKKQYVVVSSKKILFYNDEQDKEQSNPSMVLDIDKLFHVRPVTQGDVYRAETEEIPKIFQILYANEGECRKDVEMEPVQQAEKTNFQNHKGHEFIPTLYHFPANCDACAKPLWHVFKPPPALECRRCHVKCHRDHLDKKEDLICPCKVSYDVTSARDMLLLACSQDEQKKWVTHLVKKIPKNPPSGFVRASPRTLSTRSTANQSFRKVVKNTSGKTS", "test": "Inhibition of ROCK1 (unknown origin) at 1 uM"}, "[16]": {"target": "Insulin receptor (Homo sapiens) (UniProt P06213)", "test": "Inhibition of IR (unknown origin) at 1 uM"}, "[17]": {"target": "Death-associated protein kinase 2 (Homo sapiens) (UniProt Q9UIK4)", "test": "Inhibition of DAPK2 (unknown origin) at 1 uM"}, "[18]": {"target": "Casein kinase I isoform alpha-like (Homo sapiens) (UniProt Q8N752)", "test": "Inhibition of CK1a1L (unknown origin) at 1 uM"}, "[19]": {"target": "Mitogen-activated protein kinase 10 (Homo sapiens) (UniProt P53779)", "test": "Inhibition of JNK3 (unknown origin) at 1 uM"}, "[20]": {"target": "Serine/threonine-protein kinase Nek6 (Homo sapiens) (UniProt Q9HC98)", "test": "Inhibition of NEK6 (unknown origin) at 1 uM"}, "[21]": {"target": "Fibroblast growth factor receptor 3 (Homo sapiens) (UniProt P22607)", "test": "Inhibition of FGFR3 (unknown origin) at 1 uM"}, "[22]": {"target": "Serine/threonine-protein kinase MRCK gamma (Homo sapiens) (UniProt Q6DT37)", "test": "Inhibition of DMPK2 (unknown origin) at 1 uM"}, "[23]": {"target": "Mitogen-activated protein kinase 12 (Homo sapiens) (UniProt P53778)", "test": "Inhibition of p38gamma (unknown origin) at 1 uM"}, "[24]": {"target": "Mitogen-activated protein kinase 7 (Homo sapiens) (UniProt Q13164)", "test": "Inhibition of ERK5 (unknown origin) at 1 uM"}, "[25]": {"target": "Rhodopsin kinase GRK1 (Homo sapiens) (UniProt Q15835)", "sequence (Q15835 whole entry)": "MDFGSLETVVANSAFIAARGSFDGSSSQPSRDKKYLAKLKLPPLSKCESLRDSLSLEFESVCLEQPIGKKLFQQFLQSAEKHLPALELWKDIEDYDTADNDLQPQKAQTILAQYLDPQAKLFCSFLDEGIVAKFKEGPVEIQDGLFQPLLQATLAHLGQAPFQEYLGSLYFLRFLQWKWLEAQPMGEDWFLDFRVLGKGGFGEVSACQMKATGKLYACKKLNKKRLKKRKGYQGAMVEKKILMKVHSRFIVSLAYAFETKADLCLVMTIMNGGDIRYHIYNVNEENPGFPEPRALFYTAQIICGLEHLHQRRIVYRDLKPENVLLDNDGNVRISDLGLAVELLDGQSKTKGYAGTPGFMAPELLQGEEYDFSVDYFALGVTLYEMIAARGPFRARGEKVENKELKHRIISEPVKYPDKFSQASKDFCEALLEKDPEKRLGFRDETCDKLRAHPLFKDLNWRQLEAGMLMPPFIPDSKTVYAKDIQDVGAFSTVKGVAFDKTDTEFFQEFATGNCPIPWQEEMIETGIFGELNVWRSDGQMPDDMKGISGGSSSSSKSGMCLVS", "test": "Inhibition of GRK1 (unknown origin) at 1 uM"}, "[26]": {"target": "Mitogen-activated protein kinase 3 (Homo sapiens) (UniProt P27361)", "test": "Inhibition of ERK1 (unknown origin) at 1 uM"}, "[27]": {"target": "Cyclin-dependent kinase 4/cyclin D1 (Homo sapiens) (UniProt P11802+P24385)", "test": "Inhibition of CDK4/cyclin-D1 (unknown origin) at 1 uM", "assay_type": "protein-complex assay"}, "[28]": {"target": "Calcium/calmodulin-dependent protein kinase type II subunit delta (Homo sapiens) (UniProt Q13557)", "test": "Inhibition of CAMK2D (unknown origin) at 1 uM"}, "[29]": {"target": "Serine/threonine-protein kinase DCLK1 (Homo sapiens) (UniProt O15075)", "test": "Inhibition of DCAMKL1 (unknown origin) at 1 uM"}, "[30]": {"target": "Dual specificity mitogen-activated protein kinase kinase 4 (Homo sapiens) (UniProt P45985)", "test": "Inhibition of MKK4 (unknown origin) at 1 uM"}, "[31]": {"target": "Serine/threonine-protein kinase Nek2 (Homo sapiens) (UniProt P51955)", "test": "Inhibition of NEK2 (unknown origin) at 1 uM"}, "[32]": {"target": "Mitogen-activated protein kinase 13 (Homo sapiens) (UniProt O15264)", "test": "Inhibition of p38delta (unknown origin) at 1 uM"}, "[33]": {"target": "Focal adhesion kinase 1 (Homo sapiens) (UniProt Q05397)", "test": "Inhibition of FAK (unknown origin) at 1 uM"}, "[34]": {"target": "Serine/threonine-protein kinase D3 (Homo sapiens) (UniProt O94806)", "test": "Inhibition of PKCnu (unknown origin) at 1 uM"}, "[35]": {"target": "Serine/threonine-protein kinase/endoribonuclease IRE1 (Homo sapiens) (UniProt O75460)", "test": "Inhibition of ERN1 (unknown origin) at 1 uM"}, "[36]": {"target": "Calcium/calmodulin-dependent protein kinase type II subunit alpha (Homo sapiens) (UniProt Q9UQM7)", "test": "Inhibition of CAMK2A (unknown origin) at 1 uM"}, "[37]": {"target": "Tyrosine-protein kinase HCK (Homo sapiens) (UniProt P08631)", "test": "Inhibition of HCK (unknown origin) at 1 uM"}, "HCT-116": {"system": "HCT-116", "test": "Antitumor immunity in BALB/c mouse xenografted with human HCT-116 cells assessed as increase in IL-2 in serum by […]", "assay_type": "functional, cell-based"}, "[38]": {"target": "Serine/threonine-protein kinase LATS1 (Homo sapiens) (UniProt O95835)", "test": "Inhibition of LATS1 (unknown origin) at 1 uM"}, "[39]": {"target": "Serine/threonine-protein kinase MAK (Homo sapiens) (UniProt P20794)", "test": "Inhibition of MAK (unknown origin) at 1 uM"}, "[40]": {"target": "Receptor tyrosine-protein kinase erbB-2 (Homo sapiens) (UniProt P04626)", "test": "Inhibition of ERBB2 (unknown origin) at 1 uM"}, "[41]": {"target": "Tyrosine-protein kinase Fes/Fps (Homo sapiens) (UniProt P07332)", "sequence (P07332 whole entry)": "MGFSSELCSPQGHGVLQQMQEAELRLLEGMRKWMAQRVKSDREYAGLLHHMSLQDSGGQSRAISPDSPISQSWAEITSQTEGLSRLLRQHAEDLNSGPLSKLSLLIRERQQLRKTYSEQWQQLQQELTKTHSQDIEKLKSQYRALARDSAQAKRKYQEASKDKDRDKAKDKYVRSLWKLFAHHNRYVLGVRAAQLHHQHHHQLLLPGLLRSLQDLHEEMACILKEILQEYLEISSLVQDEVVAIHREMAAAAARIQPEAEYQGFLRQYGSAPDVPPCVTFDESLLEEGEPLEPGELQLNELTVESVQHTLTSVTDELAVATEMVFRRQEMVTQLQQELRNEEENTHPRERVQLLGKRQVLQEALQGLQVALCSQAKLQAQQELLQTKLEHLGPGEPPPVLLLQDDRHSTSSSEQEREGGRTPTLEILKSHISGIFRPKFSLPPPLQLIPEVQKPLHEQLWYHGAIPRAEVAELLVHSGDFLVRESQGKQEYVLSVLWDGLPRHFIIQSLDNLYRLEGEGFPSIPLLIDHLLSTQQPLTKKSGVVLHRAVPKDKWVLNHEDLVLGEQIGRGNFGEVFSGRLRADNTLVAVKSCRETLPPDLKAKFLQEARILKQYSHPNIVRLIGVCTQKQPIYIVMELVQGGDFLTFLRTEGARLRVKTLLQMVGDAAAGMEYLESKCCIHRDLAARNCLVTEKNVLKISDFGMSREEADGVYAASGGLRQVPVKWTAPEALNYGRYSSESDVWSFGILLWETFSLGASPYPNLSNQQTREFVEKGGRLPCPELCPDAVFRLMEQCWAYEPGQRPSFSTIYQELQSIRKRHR", "test": "Inhibition of FES (unknown origin) at 1 uM"}, "[42]": {"target": "Serine/threonine-protein kinase TAO3 (Homo sapiens) (UniProt Q9H2K8)", "test": "Inhibition of TAOK3 (unknown origin) at 1 uM"}, "[43]": {"target": "Activin receptor type-1 (Homo sapiens) (UniProt Q04771)", "test": "Inhibition of ALK2 (unknown origin) at 1 uM"}}, "note": "Calls of active or inactive are those of the source. The calls are words filed in the database; no cut-off is given here."}
{"smiles": "OCCOCc1cn(CCNc2nonc2/C(=N/O)Nc2ccc(F)c(Br)c2)nn1", "values": [{"measurement": "inhibition", "setting": "[1]", "value": "inactive"}, {"measurement": "inhibition", "setting": "[2]", "value": "inactive"}, {"measurement": "microsomal CLint", "setting": "[3]", "value": 30.1, "unit": "µL/min/mg"}, {"measurement": "inhibition", "setting": "[4]", "value": "inactive"}, {"measurement": "inhibition", "setting": "[5]", "value": "inactive"}, {"measurement": "inhibition", "setting": "Homo sapiens", "value": "inactive"}, {"measurement": "inhibition", "setting": "[6]", "value": "inactive"}, {"measurement": "inhibition", "setting": "[7]", "value": "inactive"}, {"measurement": "inhibition", "setting": "[8]", "value": "inactive"}, {"measurement": "inhibition", "setting": "[9]", "value": "inactive"}, {"measurement": "inhibition", "setting": "[10]", "value": "inactive"}, {"measurement": "inhibition", "setting": "[11]", "value": "inactive"}, {"measurement": "inhibition", "setting": "[12]", "value": "inactive"}, {"measurement": "inhibition", "setting": "[13]", "value": "inactive"}, {"measurement": "K", "setting": "[14]", "value": 0.0161, "unit": "min⁻¹"}, {"measurement": "inhibition", "setting": "[15]", "value": "inactive"}, {"measurement": "inhibition", "setting": "[16]", "value": "inactive"}, {"measurement": "inhibition", "setting": "[17]", "value": "inactive"}, {"measurement": "inhibition", "setting": "[18]", "value": "inactive"}, {"measurement": "inhibition", "setting": "[19]", "value": "inactive"}, {"measurement": "inhibition", "setting": "[20]", "value": "inactive"}, {"measurement": "inhibition", "setting": "[21]", "value": "inactive"}, {"measurement": "inhibition", "setting": "[22]", "value": "inactive"}, {"measurement": "inhibition", "setting": "[23]", "value": "inactive"}, {"measurement": "inhibition", "setting": "[24]", "value": "inactive"}, {"measurement": "inhibition", "setting": "[25]", "value": "inactive"}, {"measurement": "inhibition", "setting": "[26]", "value": "inactive"}, {"measurement": "inhibition", "setting": "[27]", "value": "inactive"}, {"measurement": "inhibition", "setting": "[28]", "value": "inactive"}, {"measurement": "inhibition", "setting": "[29]", "value": "inactive"}, {"measurement": "inhibition", "setting": "[30]", "value": "inactive"}, {"measurement": "inhibition", "setting": "[31]", "value": "inactive"}, {"measurement": "inhibition", "setting": "[32]", "value": "inactive"}, {"measurement": "inhibition", "setting": "[33]", "value": "inactive"}, {"measurement": "inhibition", "setting": "[34]", "value": "inactive"}, {"measurement": "inhibition", "setting": "[35]", "value": "inactive"}, {"measurement": "inhibition", "setting": "[36]", "value": "inactive"}, {"measurement": "inhibition", "setting": "[37]", "value": "inactive"}, {"measurement": "Activity", "setting": "HCT-116", "value": "Active"}, {"measurement": "inhibition", "setting": "[38]", "value": "inactive"}, {"measurement": "inhibition", "setting": "[39]", "value": "inactive"}, {"measurement": "inhibition", "setting": "[40]", "value": "inactive"}, {"measurement": "inhibition", "setting": "[41]", "value": "inactive"}, {"measurement": "inhibition", "setting": "[42]", "value": "inactive"}, {"measurement": "inhibition", "setting": "[43]", "value": "inactive"}]}
